In paper PMC6090075 (Acta Pharmaceutica Sinica. B, 2017):
pKd: −log10 of the molar value.

Target: low-density lipoprotein receptor (LDLR)-related protein 6 (LRP6) (Homo sapiens, UniProt O75581)
Assay: SPR on immobilized recombinant LRP6
Type: binding

low-density lipoprotein receptor (LDLR)-related protein 6 (LRP6), sequence (O75581 20-1613): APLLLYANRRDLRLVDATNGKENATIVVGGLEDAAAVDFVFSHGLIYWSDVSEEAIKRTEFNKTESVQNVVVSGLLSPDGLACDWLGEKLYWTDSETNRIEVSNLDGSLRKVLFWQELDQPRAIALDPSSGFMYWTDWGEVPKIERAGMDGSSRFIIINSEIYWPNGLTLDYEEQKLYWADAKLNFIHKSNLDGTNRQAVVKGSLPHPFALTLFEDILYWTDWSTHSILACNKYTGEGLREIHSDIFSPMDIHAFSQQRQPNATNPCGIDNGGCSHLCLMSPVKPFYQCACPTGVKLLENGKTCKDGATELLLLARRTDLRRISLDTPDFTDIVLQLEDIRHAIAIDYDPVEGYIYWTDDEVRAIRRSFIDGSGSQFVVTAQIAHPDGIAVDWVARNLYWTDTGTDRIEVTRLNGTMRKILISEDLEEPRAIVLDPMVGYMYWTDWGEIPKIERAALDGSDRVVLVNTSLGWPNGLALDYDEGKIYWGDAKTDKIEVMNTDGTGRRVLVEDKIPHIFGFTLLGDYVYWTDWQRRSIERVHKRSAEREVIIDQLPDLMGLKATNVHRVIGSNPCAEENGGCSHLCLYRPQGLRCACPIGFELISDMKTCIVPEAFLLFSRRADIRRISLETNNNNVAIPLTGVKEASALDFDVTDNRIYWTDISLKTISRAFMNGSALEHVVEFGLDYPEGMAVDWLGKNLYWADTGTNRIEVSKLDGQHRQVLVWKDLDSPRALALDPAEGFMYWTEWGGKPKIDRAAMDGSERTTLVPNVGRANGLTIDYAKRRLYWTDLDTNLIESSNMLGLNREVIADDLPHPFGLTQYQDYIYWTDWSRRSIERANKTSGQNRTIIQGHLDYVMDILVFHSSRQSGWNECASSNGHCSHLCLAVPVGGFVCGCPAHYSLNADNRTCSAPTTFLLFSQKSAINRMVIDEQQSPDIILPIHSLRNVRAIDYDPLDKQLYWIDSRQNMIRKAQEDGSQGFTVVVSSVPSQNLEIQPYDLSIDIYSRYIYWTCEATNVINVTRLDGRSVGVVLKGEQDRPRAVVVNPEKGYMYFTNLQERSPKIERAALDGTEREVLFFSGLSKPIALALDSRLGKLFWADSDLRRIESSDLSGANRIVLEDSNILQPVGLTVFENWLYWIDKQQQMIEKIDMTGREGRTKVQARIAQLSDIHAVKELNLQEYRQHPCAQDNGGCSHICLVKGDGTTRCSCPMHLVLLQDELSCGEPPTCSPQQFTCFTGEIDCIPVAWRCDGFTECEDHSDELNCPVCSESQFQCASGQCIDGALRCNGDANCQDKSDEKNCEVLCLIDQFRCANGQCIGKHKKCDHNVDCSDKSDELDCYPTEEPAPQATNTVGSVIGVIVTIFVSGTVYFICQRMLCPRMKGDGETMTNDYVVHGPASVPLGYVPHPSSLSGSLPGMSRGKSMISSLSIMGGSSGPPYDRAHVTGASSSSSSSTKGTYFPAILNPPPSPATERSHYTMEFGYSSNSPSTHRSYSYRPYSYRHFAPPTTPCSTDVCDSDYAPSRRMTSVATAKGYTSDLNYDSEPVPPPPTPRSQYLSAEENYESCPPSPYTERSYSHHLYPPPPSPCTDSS

pKd: 5.25
Compound: C=CCSSC[C@H](N)C(=O)O [SAMC, S-allylmercaptocysteine]
